According to patent publication US8952024B2, “Herbicidal pyrimidone derivatives” (E I du Pont de Nemours and Company, priority 2009, dated 2015):

Key:
Assay in all cases: Test B pre-/postemergence plant response
Type in all cases: in vivo
corn (Zea mays) = tested on: corn (Zea mays)
Summary of the method: (§1)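 Response scores were assigned visually after 13 to 15 days in a greenhouse, comparing treated pots with controls on a 0–100 scale where 100 denotes complete control. Preemergence treatments went onto freshly seeded loam/sand soil; postemergence treatments onto plants 2 to 18 cm tall.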

[1] = tested on: green foxtail (Setaria viridis)
Summary of the method: as §1

[2] = tested on: goosegrass (Eleusine indica)
Summary of the method: as §1

[3] = tested on: johnsongrass (Sorghum halepense)
Summary of the method: as §1

[4] = tested on: Surinam grass (Brachiaria decumbens)
Summary of the method: as §1

kochia (Kochia scoparia) = conditions: Preemergence
Summary of the method: as §1

[5] = tested on: morningglory (Ipomoea coccinea)
Summary of the method: as §1

[6] = tested on: yellow nutsedge (Cyperus esculentus)
Summary of the method: as §1

[7] = tested on: downy bromegrass (Bromus tectorum)
Summary of the method: as §1

[8] = tested on: woolly cupgrass (Eriochloa villosa)
Summary of the method: as §1

soybean (Glycine max) = tested on: soybean (Glycine max)
Summary of the method: as §1

[9] = tested on: velvetleaf (Abutilon theophrasti)
Summary of the method: as §1

[10] = tested on: blackgrass (Alopecurus myosuroides)
Summary of the method: as §1

[11] = tested on: large crabgrass (Digitaria sanguinalis)
Summary of the method: as §1

[12] = tested on: lambsquarters (Chenopodium album)
Summary of the method: as §1

wild oat (Avena fatua) = tested on: wild oat (Avena fatua)
Summary of the method: as §1

[13] = tested on: pigweed (Amaranthus retroflexus)
Summary of the method: as §1

[14] = 250 g ai/ha, Preemergence, 0 to 100 scale
[15] = Postemergence, 31 g ai/ha, scale 0 to 100 (0 no effect, 100 complete control)
[16] = Postemergence, 62 g ai/ha, scale 0 (no effect) to 100 (complete control), 13 to 15 days
[17] = Postemergence, 125 g ai/ha, visual rating after 13 to 15 days, scale 0 (no effect) to 100 (complete control)
[18] = Postemergence, 250 g ai/ha, scale 0 to 100
[19] = Preemergence, 31 g ai/ha, scale 0 to 100 (0 no effect, 100 complete control)
[20] = Preemergence, 62 g ai/ha, scale 0 to 100, 0 no effect, 100 complete control
[21] = Preemergence, 125 g ai/ha, 0 to 100 scale

## O=C1CCCC([O-])=C1C(=O)c1cnc(-c2ccccc2)n(-c2ccccc2)c1=O.[K+] [Compound 14]
Corn (Zea mays); [14]
  Plant response rating, Corn: 10
Corn (Zea mays); [15]
  Plant response rating, Corn: 10
Corn (Zea mays); [16]
  Plant response rating, Corn: 40
Corn (Zea mays); [17]
  Plant response rating, Corn: 45
Corn (Zea mays); [18]
  Corn plant response rating: 70
Corn (Zea mays); [19]
  Plant response rating, Corn: 0
Corn (Zea mays); [20]
  Plant response rating, Corn: 0
Corn (Zea mays); [21]
  Corn plant response rating: 0
[1]; [14]
  Plant response rating, Foxtail, Green: 60
[1]; [15]
  Plant response rating, Foxtail, Green: 45
[1]; [16]
  Plant response rating, Foxtail, Green: 45
[1]; [17]
  Plant response rating, Foxtail, Green: 50
[1]; [18]
  Foxtail, Green plant response rating: 85
[1]; [19]
  Plant response rating, Foxtail, Green: 0
[1]; [20]
  Plant response rating, Foxtail, Green: 0
[1]; [21]
  Foxtail, Green plant response rating: 10
[2]; [14]
  Plant response rating, Goosegrass: 100
[2]; [15]
  Plant response rating, Goosegrass: 80
[2]; [16]
  Plant response rating, Goosegrass: 80
[2]; [17]
  Plant response rating, Goosegrass: 80
[2]; [18]
  Goosegrass plant response rating: 85
[2]; [19]
  Plant response rating, Goosegrass: 70
[2]; [21]
  Goosegrass plant response rating: 98
[3]; [14]
  Plant response rating, Johnsongrass: 95
[3]; [15]
  Plant response rating, Johnsongrass: 45
[3]; [16]
  Plant response rating, Johnsongrass: 80
[3]; [17]
  Plant response rating, Johnsongrass: 80
[3]; [18]
  Johnsongrass plant response rating: 80
[3]; [19]
  Plant response rating, Johnsongrass: 5
[3]; [20]
  Plant response rating, Johnsongrass: 30
[3]; [21]
  Johnsongrass plant response rating: 80
[4]; [14]
  Plant response rating, Surinam Grass: 80
[4]; [15]
  Plant response rating, Surinam Grass: 40
[4]; [16]
  Plant response rating, Surinam Grass: 50
[4]; [17]
  Plant response rating, Surinam Grass: 50
[4]; [18]
  Surinam Grass plant response rating: 55
[4]; [19]
  Plant response rating, Surinam Grass: 0
[4]; [20]
  Plant response rating, Surinam Grass: 5
[4]; [21]
  Surinam Grass plant response rating: 60
Kochia (Kochia scoparia); 250 g ai/ha, 0 to 100 scale
  Plant response rating, Kochia: 100
Kochia (Kochia scoparia); 31 g ai/ha, scale 0 to 100 (0 no effect, 100 complete control)
  Plant response rating, Kochia: 85
Kochia (Kochia scoparia); 62 g ai/ha, scale 0 to 100, 0 no effect, 100 complete control
  Plant response rating, Kochia: 100
Kochia (Kochia scoparia); 125 g ai/ha, 0 to 100 scale
  Kochia plant response rating: 100
[5]; [14]
  Plant response rating, Morningglory: 100
[5]; [15]
  Plant response rating, Morningglory: 70
[5]; [16]
  Plant response rating, Morningglory: 70
[5]; [17]
  Plant response rating, Morningglory: 80
[5]; [18]
  Morningglory plant response rating: 95
[5]; [19]
  Plant response rating, Morningglory: 100
[5]; [20]
  Plant response rating, Morningglory: 100
[5]; [21]
  Morningglory plant response rating: 100
[6]; [14]
  Plant response rating, Nutsedge, Yellow: 85
[6]; [15]
  Plant response rating, Nutsedge, Yellow: 20
[6]; [16]
  Plant response rating, Nutsedge, Yellow: 30
[6]; [17]
  Plant response rating, Nutsedge, Yellow: 30
[6]; [18]
  Nutsedge, Yellow plant response rating: 50
[6]; [19]
  Plant response rating, Nutsedge, Yellow: 0
[6]; [20]
  Plant response rating, Nutsedge, Yellow: 30
[6]; [21]
  Nutsedge, Yellow plant response rating: 40
[7]; [14]
  Plant response rating, Bromegrass, Downy: 0
[7]; [15]
  Plant response rating, Bromegrass, Downy: 10
[7]; [16]
  Plant response rating, Bromegrass, Downy: 30
[7]; [17]
  Plant response rating, Bromegrass, Downy: 50
[7]; [18]
  Bromegrass, Downy plant response rating: 70
[7]; [19]
  Plant response rating, Bromegrass, Downy: 0
[7]; [20]
  Plant response rating, Bromegrass, Downy: 0
[7]; [21]
  Bromegrass, Downy plant response rating: 0
[8]; [14]
  Plant response rating, Cupgrass, Woolly: 70
[8]; [15]
  Plant response rating, Cupgrass, Woolly: 50
[8]; [16]
  Plant response rating, Cupgrass, Woolly: 80
[8]; [17]
  Plant response rating, Cupgrass, Woolly: 80
[8]; [18]
  Cupgrass, Woolly plant response rating: 80
[8]; [19]
  Plant response rating, Cupgrass, Woolly: 0
[8]; [20]
  Plant response rating, Cupgrass, Woolly: 5
[8]; [21]
  Cupgrass, Woolly plant response rating: 50
Soybean (Glycine max); [14]
  Plant response rating, Soybean: 85
Soybean (Glycine max); [15]
  Plant response rating, Soybean: 80
Soybean (Glycine max); [16]
  Plant response rating, Soybean: 85
Soybean (Glycine max); [17]
  Plant response rating, Soybean: 90
Soybean (Glycine max); [18]
  Soybean plant response rating: 90
Soybean (Glycine max); [19]
  Plant response rating, Soybean: 25
Soybean (Glycine max); [21]
  Soybean plant response rating: 50
[9]; [14]
  Plant response rating, Velvetleaf: 100
[9]; [15]
  Plant response rating, Velvetleaf: 85
[9]; [16]
  Plant response rating, Velvetleaf: 90
[9]; [17]
  Plant response rating, Velvetleaf: 90
[9]; [18]
  Velvetleaf plant response rating: 100
[9]; [19]
  Plant response rating, Velvetleaf: 70
[9]; [20]
  Plant response rating, Velvetleaf: 98
[9]; [21]
  Velvetleaf plant response rating: 100
[10]; [14]
  Plant response rating, Blackgrass: 0
[10]; [15]
  Plant response rating, Blackgrass: 0
[10]; [16]
  Plant response rating, Blackgrass: 0
[10]; [17]
  Plant response rating, Blackgrass: 5
[10]; [18]
  Blackgrass plant response rating: 5
[10]; [19]
  Plant response rating, Blackgrass: 0
[10]; [20]
  Plant response rating, Blackgrass: 0
[10]; [21]
  Blackgrass plant response rating: 0
[11]; [14]
  Plant response rating, Crabgrass, Large: 100
[11]; [15]
  Plant response rating, Crabgrass, Large: 50
[11]; [16]
  Plant response rating, Crabgrass, Large: 55
[11]; [17]
  Plant response rating, Crabgrass, Large: 85
[11]; [18]
  Crabgrass, Large plant response rating: 85
[11]; [19]
  Plant response rating, Crabgrass, Large: 5
[11]; [20]
  Plant response rating, Crabgrass, Large: 50
[11]; [21]
  Crabgrass, Large plant response rating: 100
[12]; [14]
  Plant response rating, Lambsquarters: 100
[12]; [15]
  Plant response rating, Lambsquarters: 85
[12]; [16]
  Plant response rating, Lambsquarters: 85
[12]; [17]
  Plant response rating, Lambsquarters: 85
[12]; [18]
  Lambsquarters plant response rating: 85
[12]; [19]
  Plant response rating, Lambsquarters: 100
[12]; [20]
  Plant response rating, Lambsquarters: 100
[12]; [21]
  Lambsquarters plant response rating: 100
Wild oat (Avena fatua); [14]
  Plant response rating, Oat, Wild: 0
Wild oat (Avena fatua); [15]
  Plant response rating, Oat, Wild: 30
Wild oat (Avena fatua); [16]
  Plant response rating, Oat, Wild: 40
Wild oat (Avena fatua); [17]
  Plant response rating, Oat, Wild: 50
Wild oat (Avena fatua); [18]
  Oat, Wild plant response rating: 50
Wild oat (Avena fatua); [19]
  Plant response rating, Oat, Wild: 0
Wild oat (Avena fatua); [20]
  Plant response rating, Oat, Wild: 0
Wild oat (Avena fatua); [21]
  Oat, Wild plant response rating: 0
[13]; [14]
  Plant response rating, Pigweed: 100
[13]; [15]
  Plant response rating, Pigweed: 80
[13]; [16]
  Plant response rating, Pigweed: 80
[13]; [17]
  Plant response rating, Pigweed: 80
[13]; [18]
  Pigweed plant response rating: 98
[13]; [19]
  Plant response rating, Pigweed: 90
[13]; [20]
  Plant response rating, Pigweed: 98
[13]; [21]
  Pigweed plant response rating: 100
